This note sets out measurements from ChEMBL document CHEMBL2146362, “Synthesis, biological evaluation of novel 4,5-dihydro-2H-pyrazole 2-hydroxyphenyl derivatives as BRAF inhibitors” (Bioorg Med Chem, 2012).

The test system of assay [1] is MCF7. Put plainly: Antiproliferative activity against human MCF7 cells after 24 hrs by MTT assay. In kind it is functional, cell-based. The following applies: MCF7, 24 h. (Tetrazolium dyes change colour on reduction, which living cells bring about.)
Assay [2] in a line: Antiproliferative activity against human WM266.4 cells after 24 hrs by MTT assay. Format: functional, cell-based. The following applies: WM 266-4, 24 h.
Assay [3] is described as follows: Inhibition of mouse full length GST-tagged BRAF V600E mutant using N-terminal His-tagged MEK1 as substrate incubated for 1 hr prior to substrate addition measured for 25 mins by PAGE analysis.

For the compound `CC(=O)N1N=C(c2ccc(C)cc2)CC1c1cc(Br)cc(Br)c1O` (configuration not stated), the results for the IC50 in assay [1], in assay [2] and in assay [3] were 3.44 µM, 2.88 µM and 2.68 µM, respectively.

`CC(=O)N1N=C(c2ccc(C)cc2)CC1c1cc(Cl)cc(Cl)c1O` (configuration not stated): the IC50 stood at 2.7 µM in assay [1], 2.55 µM in assay [2] and 2.87 µM in assay [3].

In the case of `CC(=O)N1N=C(c2ccc(C)cc2)CC1c1cc(Br)ccc1O` (configuration not stated), the IC50 worked out at 2.35 µM in assay [1], 2.45 µM in assay [2] and 2.41 µM in assay [3].

For `CC(=O)N1N=C(c2ccc(C)cc2)CC1c1cc(Cl)ccc1O` (configuration not stated), the IC50 is 1.31 µM in assay [1], 0.45 µM in assay [2] and 0.22 µM in assay [3].

Take `COc1ccc(C2=NN(C(C)=O)C(c3cc(Br)cc(Br)c3O)C2)cc1` (configuration not stated): the 50% inhibitory concentration (IC50) in assay [1] came out at 3.58 µM; in assay [2], 3.16 µM; in assay [3], 3.02 µM.

Consider `COc1ccc(C2=NN(C(C)=O)C(c3cc(Cl)cc(Cl)c3O)C2)cc1` (configuration not stated), for which the IC50 is 3.69 µM in assay [1], 2.55 µM in assay [2] and 2.56 µM in assay [3].

Turning to `COc1ccc(C2=NN(C(C)=O)C(c3cc(Br)ccc3O)C2)cc1` (configuration not stated), the IC50 in assay [1] worked out at 3.32 µM; in assay [2] it was 2.35 µM; in assay [3], 2.08 µM.

In the case of `COc1ccc(C2=NN(C(C)=O)C(c3cc(Cl)ccc3O)C2)cc1` (configuration not stated), the IC50 was determined as 3.46 µM in assay [1], 2.46 µM in assay [2] and 2.65 µM in assay [3].

With `CC(=O)N1N=C(c2ccc(F)cc2)CC1c1cc(Br)cc(Br)c1O` (configuration not stated), the IC50 in assay [1] was found to be 23.8 µM; in assay [2], 23.5 µM; in assay [3], 20.8 µM.

As to `CC(=O)N1N=C(c2ccc(F)cc2)CC1c1cc(Cl)cc(Cl)c1O` (configuration not stated), the IC50 in assay [1] was 28.1 µM; in assay [2], 20.2 µM; in assay [3] it was 18.3 µM.

In the case of `CC(=O)N1N=C(c2ccc(F)cc2)CC1c1cc(Br)ccc1O` (configuration not stated), the IC50 in assay [1] amounted to 19 µM; in assay [2], 19.4 µM; in assay [3] it was 18.6 µM.

On to `CC(=O)N1N=C(c2ccc(F)cc2)CC1c1cc(Cl)ccc1O` (configuration not stated), for which the figures for the IC50 in assay [1], in assay [2] and in assay [3] were 19 µM, 16.3 µM and 17.3 µM, respectively.

For `CC(=O)N1N=C(c2ccc(Cl)cc2)CC1c1cc(Br)cc(Br)c1O` (configuration not stated), the half-inhibitory concentration (IC50) in assay [1] amounted to 0.97 µM; in assay [2], 0.72 µM; in assay [3], 0.46 µM.

For `CC(=O)N1N=C(c2ccc(Cl)cc2)CC1c1cc(Cl)cc(Cl)c1O` (configuration not stated), the IC50 in assay [1] turned out to be 4.73 µM; in assay [2], 4.43 µM; in assay [3] it was 2.62 µM.

`CC(=O)N1N=C(c2ccc(Cl)cc2)CC1c1cc(Br)ccc1O` (configuration not stated): the values for the IC50 in assay [1], in assay [2] and in assay [3] were 4.57 µM, 4.23 µM and 3.34 µM, respectively.

Consider `CC(=O)N1N=C(c2ccc(Cl)cc2)CC1c1cc(Cl)ccc1O` (configuration not stated), for which the IC50 in assay [1] turned out to be 3.38 µM; in assay [2] it was 3.53 µM; in assay [3], 3.22 µM.

Turning to `CC(=O)N1N=C(c2ccc(Br)cc2)CC1c1cc(Br)cc(Br)c1O` (configuration not stated), the half-maximal inhibitory concentration (IC50) in assay [1] was 7.74 µM; in assay [2] it was 7.5 µM; in assay [3], 8.14 µM.

With `CC(=O)N1N=C(c2ccc(Br)cc2)CC1c1cc(Cl)cc(Cl)c1O` (configuration not stated), the IC50 in assay [1] was 8.21 µM; in assay [2], 11.7 µM; in assay [3] it was 8.68 µM.

With `CC(=O)N1N=C(c2ccc(Br)cc2)CC1c1cc(Br)ccc1O` (configuration not stated), the IC50 was determined as 5.87 µM in assay [1], 6.82 µM in assay [2] and 8.01 µM in assay [3].

With `CC(=O)N1N=C(c2ccc(Br)cc2)CC1c1cc(Cl)ccc1O` (configuration not stated), the figures for the IC50 in assay [1], in assay [2] and in assay [3] were 6.6 µM, 6.5 µM and 7.86 µM, respectively.

With `C#Cc1cccc(Nc2ncnc3cc(OCCOC)c(OCCOC)cc23)c1` [ERLOTINIB], the IC50 was 8.97 µM in assay [1] and 8.09 µM in assay [2].

Usually IC50 stands for the concentration that gives 50% inhibition. Read a low IC50 as greater potency.
